Data on 4 molecules can be found in PubChem BioAssay AID2060907 (Molecular Pharmacology Branch, DTP, NCI, 2025).

This experiment relates to 388556-164-R-J1-PDC complex spheroid viability. As to the kind of experiment: Anticancer human tumor 388556-164-R-J1-PDC patient-derived colon adenocarcinoma cell line growth inhibition [RAS]. Particulars: for pIC50: curve of first compound; for viability, T/C: stronger effect = lower value. A digest of the protocol:
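Multi-cell-type spheroids: tumor cells plus HUVEC endothelial cells and mesenchymal stem cells. RAS-pathway inhibitors were combined with targeted agents, each dosed in half-log steps down from clinical Cmax, or from 10 microM when Cmax was unknown.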

Each structure is given as a SMILES string. pIC50: −log10 of the molar value. Where “and” joins values, the source holds several entries; their conditions need not be identical. Identical values can stand only once.
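Also: spheroids exposed to compound for 7 days before readout.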
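For viability, T/C in this document: 100% = DMSO vehicle control luminescence.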

`CC(=O)OC12COC1CC(O)C1(C)C(=O)C(O)C3=C(C)C(OC(=O)C(O)C(NC(=O)OC(C)(C)C)c4ccccc4)CC(O)(C(OC(=O)c4ccccc4)C21)C3(C)C` (stereo unspecified) + CCn1c(-c2cc(N3CCN(C)CC3)cnc2C(C)OC)c2c3cc(ccc31)-c1csc(n1)CC(NC(=O)C1CC1C)C(=O)N1CCCC(N1)C(=O)OCC(C)(C)C2: the negative-log IC50 (pIC50) reads like this: (second compound 0.000949 µM) below 5.00; (second compound 0.003 µM) below 5.00; (second compound 0.00949 µM) 6.29; (second compound 0.03 µM) above 7.50; (second compound 0.0949 µM) above 7.50; (second compound 0.3 µM) above 7.50. Moreover, the viability, T/C is 77.2% (second compound 0.000949 µM, first compound 0.0316 µM); 63.2% (second compound 0.000949 µM, first compound 0.1 µM); 63.7% (second compound 0.000949 µM, first compound 0.316 µM); 66.1% (second compound 0.000949 µM, first compound 1 µM); 69.2% (second compound 0.000949 µM, first compound 3.16 µM); 59.6% (second compound 0.000949 µM, first compound 10 µM). In addition, the viability, T/C runs as follows: (second compound 0.003 µM, first compound 0.0316 µM) 76.4%; (second compound 0.003 µM, first compound 0.1 µM) 61.6%; (second compound 0.003 µM, first compound 0.316 µM) 54%; (second compound 0.003 µM, first compound 1 µM) 59.1%; (second compound 0.003 µM, first compound 3.16 µM) 55.1%; (second compound 0.003 µM, first compound 10 µM) 50.4%. Moreover, the viability, T/C reads like this: (second compound 0.00949 µM, first compound 0.0316 µM) 65.3%; (second compound 0.00949 µM, first compound 0.1 µM) 57.1%; (second compound 0.00949 µM, first compound 0.316 µM) 52.8%; (second compound 0.00949 µM, first compound 1 µM) 43.9%; (second compound 0.00949 µM, first compound 3.16 µM) 50.4%; (second compound 0.00949 µM, first compound 10 µM) 41.2%. Also, the viability, T/C (second compound 0.03 µM, first compound 0.0316 µM) was 46.9%; the viability, T/C (second compound 0.03 µM, first compound 0.1 µM) is 42.3%; the viability, T/C (second compound 0.03 µM, first compound 0.316 µM) is 40.1%; the viability, T/C (second compound 0.03 µM, first compound 1 µM) is 44.1%; the viability, T/C (second compound 0.03 µM, first compound 3.16 µM) was 41.2%; the viability, T/C (second compound 0.03 µM, first compound 10 µM) is 32%. Moreover, the viability, T/C (second compound 0.0949 µM, first compound 0.0316 µM) is 44.1%; the viability, T/C (second compound 0.0949 µM, first compound 0.1 µM) is 34.9%; the viability, T/C (second compound 0.0949 µM, first compound 0.316 µM) is 34.9%; the viability, T/C (second compound 0.0949 µM, first compound 1 µM) is 32.4%; the viability, T/C (second compound 0.0949 µM, first compound 3.16 µM) was 31.1%; the viability, T/C (second compound 0.0949 µM, first compound 10 µM) is 25.4%. The viability, T/C reads like this: (second compound 0.3 µM, first compound 0.0316 µM) 27.4%; (second compound 0.3 µM, first compound 0.1 µM) 27.9%; (second compound 0.3 µM, first compound 0.316 µM) 28%; (second compound 0.3 µM, first compound 1 µM) 30.1%; (second compound 0.3 µM, first compound 3.16 µM) 27.8%; (second compound 0.3 µM, first compound 10 µM) 24.4%.

Consider `CCC(CC)c1cc(NC2CCC(N)C2)n2nccc2n1` (stereo unspecified) + C#Cc1c(F)ccc2cc(O)cc(-c3ncc4c(N5CC6CCC(C5)N6)nc(OCC56CCCN5CC(F)C6)nc4c3F)c12, for which the negative-log IC50 (pIC50) reads like this: (second compound 0.0316 µM) 5.48; (second compound 0.1 µM) 5.64; (second compound 0.316 µM) 5.59; (second compound 1 µM) 5.60; (second compound 3.16 µM) 5.71; (second compound 10 µM) 5.88. The viability, T/C is 98.2% (second compound 0.0316 µM, first compound 0.0316 µM); 97.2% (second compound 0.0316 µM, first compound 0.1 µM); 109% (second compound 0.0316 µM, first compound 0.316 µM); 101% (second compound 0.0316 µM, first compound 1 µM); 50.7% (second compound 0.0316 µM, first compound 3.16 µM); 32.1% (second compound 0.0316 µM, first compound 10 µM). For the same molecule, the viability, T/C runs as follows: (second compound 0.1 µM, first compound 0.0316 µM) 98.2%; (second compound 0.1 µM, first compound 0.1 µM) 99.1%; (second compound 0.1 µM, first compound 0.316 µM) 102%; (second compound 0.1 µM, first compound 1 µM) 94.7%; (second compound 0.1 µM, first compound 3.16 µM) 33.4%; (second compound 0.1 µM, first compound 10 µM) 30.8%. The viability, T/C (second compound 0.316 µM, first compound 0.0316 µM) is 102%; the viability, T/C (second compound 0.316 µM, first compound 0.1 µM) is 98%; the viability, T/C (second compound 0.316 µM, first compound 0.316 µM) is 83.1%; the viability, T/C (second compound 0.316 µM, first compound 1 µM) was 96.7%; the viability, T/C (second compound 0.316 µM, first compound 3.16 µM) is 40.3%; the viability, T/C (second compound 0.316 µM, first compound 10 µM) was 27.3%. Besides, the viability, T/C (second compound 1 µM, first compound 0.0316 µM) was 82.5%; the viability, T/C (second compound 1 µM, first compound 0.1 µM) is 83.3%; the viability, T/C (second compound 1 µM, first compound 0.316 µM) was 68.8%; the viability, T/C (second compound 1 µM, first compound 1 µM) was 86.8%; the viability, T/C (second compound 1 µM, first compound 3.16 µM) was 42%; the viability, T/C (second compound 1 µM, first compound 10 µM) was 24.2%. In addition, the viability, T/C is 73.9% (second compound 3.16 µM, first compound 0.0316 µM); 69.7% (second compound 3.16 µM, first compound 0.1 µM); 66.3% (second compound 3.16 µM, first compound 0.316 µM); 78.8% (second compound 3.16 µM, first compound 1 µM); 33.2% (second compound 3.16 µM, first compound 3.16 µM); 20.8% (second compound 3.16 µM, first compound 10 µM). Moreover, the viability, T/C is 64.1% (second compound 10 µM, first compound 0.0316 µM); 65.6% (second compound 10 µM, first compound 0.1 µM); 66.4% (second compound 10 µM, first compound 0.316 µM); 60.4% (second compound 10 µM, first compound 1 µM); 16.9% (second compound 10 µM, first compound 3.16 µM); 15.5% (second compound 10 µM, first compound 10 µM).

As for `NC1c2ccccc2OC12CCN(c1cnc3c(N4CCCc5ncccc54)n[nH]c3n1)CC2` (stereo unspecified), the viability, T/C (compound 0.0316 µM) is 70% [middle of 4 runs]; the viability, T/C (compound 0.1 µM) was 59.9% [middle of 4 runs]; the viability, T/C (compound 0.316 µM) was 48.8% [middle of 4 runs]; the viability, T/C (compound 1 µM) is 41.2% [middle of 4 runs]; the viability, T/C (compound 3.16 µM) was 43.6% [middle of 4 runs]; the viability, T/C (compound 10 µM) was 37.6% [middle of 4 runs]. Further, the IC50 (curve of compound) was 242 nM [middle of 4 runs].

Consider `CC(C)n1nc(-c2ccc3oc(N)nc3c2)c2c(N)ncnc21`, for which the viability, T/C was 104% and 82.3% and 101% (2×) (compound 0.000316 µM); 86.8% and 105% (2×) and 98.4% (compound 0.00316 µM); 83% [middle of 4 runs] (compound 0.01 µM); 59.4% [middle of 4 runs] (compound 0.0316 µM); 40% (2×) and 49.2% and 51.2% (compound 0.1 µM).
